pIC50: −log10 of the molar value.
What was measured:
MLLT1 = target: T1, MLLT1 (Homo sapiens, UniProt Q03111); experiment: MLLT1 degradation assay in MV4-11 cells (JESS, 24 h); assay type: cell-based; design: endogenous in cells; host or cells: MV4-11 (ATCC CRL-9591); settings: vs DMSO control
T1 sequence (Q03111 1-559): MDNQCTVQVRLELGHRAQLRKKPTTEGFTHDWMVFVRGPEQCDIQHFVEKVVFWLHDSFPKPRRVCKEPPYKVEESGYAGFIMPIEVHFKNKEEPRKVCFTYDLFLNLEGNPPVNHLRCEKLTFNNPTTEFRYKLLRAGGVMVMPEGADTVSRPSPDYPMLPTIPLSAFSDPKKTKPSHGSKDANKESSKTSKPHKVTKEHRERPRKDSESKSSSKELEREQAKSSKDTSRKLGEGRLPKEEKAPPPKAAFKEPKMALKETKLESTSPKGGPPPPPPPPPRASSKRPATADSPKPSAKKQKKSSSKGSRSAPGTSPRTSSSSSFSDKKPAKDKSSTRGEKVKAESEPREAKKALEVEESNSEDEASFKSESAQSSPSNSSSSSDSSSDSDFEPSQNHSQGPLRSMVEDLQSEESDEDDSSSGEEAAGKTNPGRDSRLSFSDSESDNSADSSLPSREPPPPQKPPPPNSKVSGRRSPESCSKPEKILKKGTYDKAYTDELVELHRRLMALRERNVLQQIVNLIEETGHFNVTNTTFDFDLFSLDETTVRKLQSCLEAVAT
Description: MLLT1 degradation efficacy of compounds was tested in an automated chemiluminescent detection system (JESS, Cat #004-650). MV4-11 (#CRL-9591, ATCC) cells were seeded at a density of 1.2 million cells/well in a non-treated 6-well cell culture plate in 2.4 mL of complete medium (IMDM+10% FBS+1× Penicillin-Streptomycin). 10 mM DMSO stocks were prepared, and cells were treated with three concentrations of test compounds viz. 1000, 100 and 10 nM at a final DMSO concentration of 0.1% and incubated for 24 h at 37° C., 5% CO2. Post incubation, cells were centrifuged, washed with HBSS and lysed in 70 μL of RIPA buffer supplemented with Protease inhibitors (sc-24948; Santa Cruz). Subsequently, protein estimation was done using BCA protein assay kit (23225; Pierce). 4 ug protein lysate (4 uL of 1 ug/uL lysate) was loaded into each well of the JESS cartridge (SM-W001; Bio-techne) and the JESS run was performed using 1:900 dilution of anti-human MLLT1 antibody (14893; Cell signaling technology) and 1:1200 dilution of anti-human GAPDH antibody (2118; Cell signaling technology) with anti-rabbit secondary detection module (DM-001; Bio-Techne). Post run, data were analysed using “Compass for SW” software for chemiluminescent detection. The peak area for each band was used for the calculation of MLLT1 degradation with respect to DMSO control. Data is shown as “MLLT1% degradation”. • Category A: A≥75% degradation • Category B: 50%≤B<75% degradation • Category C: 25%≤C<50% degradation • Category D: D<25% degradation

MV4-11 cells = experiment: MV4-11 cellular proliferative assay, Assay Format A (CellTiter-Glo, 120 h); assay type: cell-based; settings: Homo sapiens, Assay format A, 120 h, read-out: IC50 (MV4-11 cellular proliferative assay)
Description: An MV4-11 proliferation assay was used to test the ability of compounds to reduce cell viability. MV4-11 cells (ATCC #CRL9591) were grown in IMDM medium (11510596, Gibco) supplemented with 10% fetal bovine serum (F7524, Gibco) and 1% Penicillin/Streptomycin (15140-122, Gibco) at 37° C. with 5% CO2. Cells were seeded in 384-well Elplasia plates (4447, Corning) at a density of 50 cells/well and treated with vehicle (DMSO) or compounds (10 serial semi-log dilutions, 30 μM as top concentration).
After 120 hours of treatment, cells were incubated for 10 min at RT with the CellTiter-Glo (CTG) reagent (G7571, Promega). Measurement of the luminescence signal was performed on a microplate reader (Ensight, PerkinElmer). CTG reagent measures the amount of ATP, which is directly proportional to the number of cells, to determine the number of viable cells in culture.
The data were analysed as follows:
[formula] • where x is the measured raw signal value of a well, (cr) is the median of the measured signal values for the Central Reference (DMSO) wells on a plate, (sr) is the median of the measured signal values for the Scale Reference (reference compound) wells on a plate.
[formula] • where the experimental set-up assumes the Hill parameters in certain ranges: S0~Central Reference (CR) from normalization (=Bottom), Sinf~Scale Reference (SR) from normalization (=Top), nHill ~1, AC50~within the measured concentration range.

| SMILES | MLLT1% Degradation @ 0.01 μM (MLLT1) | MLLT1% Degradation @ 0.1 μM (MLLT1) | MLLT1% Degradation @ 1 μM (MLLT1) | pIC50 (MV4-11 cells) |
| --- | --- | --- | --- | --- |
| Cc1nn(CCCCCCCCNc2cccc3c2C(=O)N(C2CCC(=O)NC2=O)C3=O)c2cc(C(=O)Nc3cc4[nH]c(C5CCCN5C)cc4cn3)ccc12 (racemic) [Example 2, rac-1-(8-{[2-(2,6-dioxopiperidin-3-yl)-1,3-dioxoisoindol-4-yl]amino}octyl)-3-methyl-N-[2-(1-methylpyrrolidin-2-yl)-1H-pyrrolo[3,2-c]pyridin-6-yl]indazole-6-carboxamide] | B (Category B: 50%≤B<75% degradation) | A (Category A: A≥75% degradation) | A (Category A: A≥75% degradation) | > 7.00 |
| Cc1nn(CCCCCCCCNc2cccc3c2C(=O)N(C2CCC(=O)NC2=O)C3=O)c2cc(C(=O)Nc3cc4[nH]c([C@H]5CCCN5C)cc4cn3)ccc12 (stereo partly drawn) [Example 3, 1-(8-{[2-(2,6-dioxopiperidin-3-yl)-1,3-dioxoisoindol-4-yl]amino}octyl)-3-methyl-N-{2-[(2R)-1-methylpyrrolidin-2-yl]-1H-pyrrolo[3,2-c]pyridin-6-yl}indazole-6-carboxamide] | B (Category B: 50%≤B<75% degradation) | A (Category A: A≥75% degradation) | A (Category A: A≥75% degradation) | > 7.00 |
| Cc1nn(C2CCN(CCCNc3cccc4c3C(=O)N(C3CCC(=O)NC3=O)C4=O)CC2)c2cc(C(=O)Nc3cc4[nH]c([C@H]5CCCN5C)cc4cn3)ccc12 (stereo partly drawn) [Example 7, 1-[1-(3-{[2-(2,6-dioxopiperidin-3-yl)-1,3-dioxoisoindol-4-yl]amino}propyl)piperidin-4-yl]-3-methyl-N-{2-[(2R)-1-methylpyrrolidin-2-yl]-1H-pyrrolo[3,2-c]pyridin-6-yl}indazole-6-carboxamide] | – | – | – | > 7.00 |
| Cc1nn(CCCCCCCCOc2ccc3c(c2)C(=O)N(C2CCC(=O)NC2=O)C3=O)c2cc(C(=O)Nc3cc4[nH]c([C@H]5CCCN5C)cc4cn3)ccc12 (stereo partly drawn) [Example 8, 1-(8-{[2-(2,6-dioxopiperidin-3-yl)-1,3-dioxoisoindol-5-yl]oxy}octyl)-3-methyl-N-{2-[(2R)-1-methylpyrrolidin-2-yl]-1H-pyrrolo[3,2-c]pyridin-6-yl}indazole-6-carboxamide] | – | – | – | > 7.00 |
| Cc1nn(CCCCCC#Cc2cccc3c2n(C)c(=O)n3C2CCC(=O)NC2=O)c2cc(C(=O)Nc3cc4[nH]c([C@H]5CCCN5C)cc4cn3)ccc12 (stereo partly drawn) [Example 11, 1-{7-[1-(2,6-dioxopiperidin-3-yl)-3-methyl-2-oxo-1,3-benzodiazol-4-yl]hept-6-yn-1-yl}-3-methyl-N-{2-[(2R)-1-methylpyrrolidin-2-yl]-1H-pyrrolo[3,2-c]pyridin-6-yl}indazole-6-carboxamide] | B (Category B: 50%≤B<75% degradation) | B (Category B: 50%≤B<75% degradation) | B (Category B: 50%≤B<75% degradation) | > 7.00 |
| Cc1nn(CCCCCCCCOc2cccc3c2C(=O)N(C2CCC(=O)NC2=O)C3=O)c2cc(C(=O)Nc3cc4[nH]c([C@H]5CCCN5C)cc4cn3)ccc12 (stereo partly drawn) [Example 12, 1-(8-((2-(2,6-dioxopiperidin-3-yl)-1,3-dioxoisoindolin-4-yl)oxy)octyl)-3-methyl-N-(2-((R)-1-methylpyrrolidin-2-yl)-1H-pyrrolo[3,2-c]pyridin-6-yl)-1H-indazole-6-carboxamide] | – | – | – | > 7.00 |
| Cc1nn(CCCNc2cccc3c2C(=O)N(C2CCC(=O)NC2=O)C3=O)c2cc(C(=O)Nc3cc4[nH]c([C@H]5CCCN5C)cc4cn3)ccc12 (stereo partly drawn) [Example 13, 1-(3-((2-(2,6-dioxopiperidin-3-yl)-1,3-dioxoisoindolin-4-yl)amino)propyl)-3-methyl-N-(2-((R)-1-methylpyrrolidin-2-yl)-1H-pyrrolo[3,2-c]pyridin-6-yl)-1H-indazole-6-carboxamide] | – | – | – | > 7.00 |
| Cc1nn(CCCCCCCCNc2ccc3c(c2)C(=O)N(C2CCC(=O)NC2=O)C3=O)c2cc(C(=O)Nc3cc4[nH]c([C@H]5CCCN5C)cc4cn3)ccc12 (stereo partly drawn) [Example 14, 1-(8-{[2-(2,6-dioxopiperidin-3-yl)-1,3-dioxoisoindol-5-yl]amino}octyl)-3-methyl-N-{2-[(2R)-1-methylpyrrolidin-2-yl]-1H-pyrrolo[3,2-c]pyridin-6-yl}indazole-6-carboxamide] | – | – | – | > 7.00 |
| Cc1nn(CCCCCCCCNc2ccc3c(c2)C(=O)N(C2CCC(=O)NC2=O)C3=O)c2cc(C(=O)Nc3cc4[nH]c([C@@H]5CCCN5C)cc4cn3)ccc12 (stereo partly drawn) [Example 15, 1-(8-{[2-(2,6-dioxopiperidin-3-yl)-1,3-dioxoisoindol-5-yl]amino}octyl)-3-methyl-N-{2-[(2S)-1-methylpyrrolidin-2-yl]-1H-pyrrolo[3,2-c]pyridin-6-yl}indazole-6-carboxamide] | D (Category D: D<25% degradation) | A (Category A: A≥75% degradation) | A (Category A: A≥75% degradation) | > 7.00 |
| Cc1nn(CCCCCCCCNc2cccc3c2CN(C2CCC(=O)NC2=O)C3=O)c2cc(C(=O)Nc3cc4[nH]c([C@H]5CCCN5C)cc4cn3)ccc12 (stereo partly drawn) [Example 16, 1-(8-{[2-(2,6-dioxopiperidin-3-yl)-1-oxo-3H-isoindol-4-yl]amino}octyl)-3-methyl-N-{2-[(2R)-1-methylpyrrolidin-2-yl]-1H-pyrrolo[3,2-c]pyridin-6-yl}indazole-6-carboxamide] | A (Category A: A≥75% degradation) | A (Category A: A≥75% degradation) | A (Category A: A≥75% degradation) | > 7.00 |
| Cc1nn(CCCCCCCCNc2cccc3c2CN(C2CCC(=O)NC2=O)C3=O)c2cc(C(=O)Nc3cc4[nH]c([C@@H]5CCCN5C)cc4cn3)ccc12 (stereo partly drawn) [Example 17, 1-(8-{[2-(2,6-dioxopiperidin-3-yl)-1-oxo-3H-isoindol-4-yl]amino}octyl)-3-methyl-N-{2-[(2S)-1-methylpyrrolidin-2-yl]-1H-pyrrolo[3,2-c]pyridin-6-yl}indazole-6-carboxamide] | – | – | – | > 7.00 |
| Cc1nn(CCCCN2CCN(c3ccc4c(c3)C(=O)N(C3CCC(=O)NC3=O)C4=O)CC2)c2cc(C(=O)Nc3cc4[nH]c([C@H]5CCCN5C)cc4cn3)ccc12 (stereo partly drawn) [Example 19, 1-(4-{4-[2-(2,6-dioxopiperidin-3-yl)-1,3-dioxoisoindol-5-yl]piperazin-1-yl}butyl)-3-methyl-N-{2-[(2R)-1-methylpyrrolidin-2-yl]-1H-pyrrolo[3,2-c]pyridin-6-yl}indazole-6-carboxamide] | – | – | – | > 7.00 |

Source: patent publication US20260199484A1, “PROTAC DEGRADERS OF MLLT1 AND/OR MLLT3” (DARK BLUE THERAPEUTICS LTD, priority 2024, published 2026)
